Data published in the NIST ThermoML archive (doi:10.1021/je700260f).
Numbers after ± are expanded uncertainties.

Conditions: 323.14 K, Liquid, Vibrating tube method

FC(C(F)(F)F)C(F)(F)F [1,1,1,2,3,3,3-heptafluoropropane]
Conditions	mass density [kg/m3]
4100 kPa	1311 ± 1.5
4120 kPa	1311.1 ± 1.5
4140 kPa	1311.5 ± 1.5
4170 kPa	1311.8 ± 1.5
4190 kPa	1312 ± 1.5
4220 kPa	1312.3 ± 1.5
4240 kPa	1312.4 ± 1.5
4270 kPa	1312.8 ± 1.5
4290 kPa	1313.1 ± 1.5
4310 kPa	1313.2 ± 1.5
4330 kPa	1313.5 ± 1.5
4360 kPa	1313.8 ± 1.5
4380 kPa	1313.9 ± 1.5
4400 kPa	1314.2 ± 1.5
4420 kPa	1314.6 ± 1.5
4440 kPa	1314.6 ± 1.5
4470 kPa	1314.9 ± 1.5
4500 kPa	1315.2 ± 1.5
4510 kPa	1315.3 ± 1.5
4540 kPa	1315.5 ± 1.5
4560 kPa	1315.8 ± 1.5
4590 kPa	1316 ± 1.5
4610 kPa	1316.2 ± 1.5
4640 kPa	1316.6 ± 1.5
4660 kPa	1316.8 ± 1.5
4690 kPa	1317.1 ± 1.5
4710 kPa	1317.3 ± 1.5
4740 kPa	1317.6 ± 1.5
4960 kPa	1319.7 ± 1.5
4980 kPa	1320.1 ± 1.5
5020 kPa	1320.3 ± 1.5
5040 kPa	1320.6 ± 1.5
5070 kPa	1320.9 ± 1.5
5100 kPa	1321.1 ± 1.5
5130 kPa	1321.4 ± 1.5
5150 kPa	1321.7 ± 1.5
5180 kPa	1321.7 ± 1.5
5200 kPa	1322 ± 1.5
5220 kPa	1322.3 ± 1.5
5250 kPa	1322.6 ± 1.5
5280 kPa	1322.9 ± 1.5
5310 kPa	1323.2 ± 1.5
5330 kPa	1323.3 ± 1.5
5360 kPa	1323.7 ± 1.5
5390 kPa	1323.9 ± 1.5
5420 kPa	1324.1 ± 1.5
5440 kPa	1324.3 ± 1.5
5470 kPa	1324.7 ± 1.5
5490 kPa	1324.9 ± 1.5
5520 kPa	1325.2 ± 1.5
5540 kPa	1325.4 ± 1.5
5570 kPa	1325.7 ± 1.5
5600 kPa	1325.9 ± 1.5
5630 kPa	1326.2 ± 1.5
5650 kPa	1326.4 ± 1.5
5670 kPa	1326.6 ± 1.5
5960 kPa	1329.4 ± 1.5
5990 kPa	1329.5 ± 1.5
6010 kPa	1329.7 ± 1.5
6030 kPa	1330 ± 1.5
6050 kPa	1330 ± 1.5
6080 kPa	1330.3 ± 1.5
6100 kPa	1330.6 ± 1.5
6120 kPa	1330.7 ± 1.5
6140 kPa	1330.8 ± 1.5
6160 kPa	1331.1 ± 1.5
6180 kPa	1331.2 ± 1.5
6200 kPa	1331.4 ± 1.5
6230 kPa	1331.8 ± 1.5
6240 kPa	1331.8 ± 1.5
6270 kPa	1332 ± 1.5
6290 kPa	1332.4 ± 1.5
6310 kPa	1332.4 ± 1.5
6330 kPa	1332.6 ± 1.5
6350 kPa	1333 ± 1.5
6380 kPa	1333.1 ± 1.5
6390 kPa	1333.3 ± 1.5
6410 kPa	1333.5 ± 1.5
6463 kPa	1333.8 ± 1.5
6556 kPa	1334.6 ± 1.5
6581 kPa	1334.8 ± 1.5
6778 kPa	1336.5 ± 1.5
6803 kPa	1336.7 ± 1.5
6825 kPa	1337 ± 1.5
6840 kPa	1337.1 ± 1.5
6865 kPa	1337.3 ± 1.5
6881 kPa	1337.4 ± 1.5
6903 kPa	1337.7 ± 1.5
6923 kPa	1337.8 ± 1.5
6947 kPa	1338.1 ± 1.5
6974 kPa	1338.2 ± 1.5
7006 kPa	1338.7 ± 1.5
7056 kPa	1338.9 ± 1.5
7083 kPa	1339.2 ± 1.5
7103 kPa	1339.4 ± 1.5
7124 kPa	1339.5 ± 1.5
7147 kPa	1339.7 ± 1.5
7168 kPa	1339.9 ± 1.5
7194 kPa	1340.2 ± 1.5
7215 kPa	1340.4 ± 1.5
7245 kPa	1340.6 ± 1.5
7268 kPa	1340.7 ± 1.5
7292 kPa	1341 ± 1.5
7328 kPa	1341.3 ± 1.5
7350 kPa	1341.5 ± 1.5
7375 kPa	1341.7 ± 1.5
7395 kPa	1341.7 ± 1.5
7423 kPa	1342.1 ± 1.5
7444 kPa	1342.2 ± 1.5
7468 kPa	1342.4 ± 1.5
7492 kPa	1342.6 ± 1.5
7516 kPa	1342.8 ± 1.5
7540 kPa	1343.1 ± 1.5
7566 kPa	1343.2 ± 1.5
7592 kPa	1343.5 ± 1.5
7619 kPa	1343.7 ± 1.5
7640 kPa	1344 ± 1.5
7661 kPa	1344.2 ± 1.5
7683 kPa	1344.2 ± 1.5
7702 kPa	1344.3 ± 1.5
7719 kPa	1344.5 ± 1.5
7741 kPa	1344.7 ± 1.5
7761 kPa	1344.8 ± 1.5
7781 kPa	1345 ± 1.5
7801 kPa	1345.1 ± 1.5
7818 kPa	1345.3 ± 1.5
7837 kPa	1345.4 ± 1.5
7859 kPa	1345.7 ± 1.5
7878 kPa	1345.9 ± 1.5
7903 kPa	1346 ± 1.5
7924 kPa	1346 ± 1.5
7964 kPa	1346.4 ± 1.5
8025 kPa	1347 ± 1.5
8049 kPa	1347.2 ± 1.5
8068 kPa	1347.2 ± 1.5
8087 kPa	1347.4 ± 1.5
8101 kPa	1347.6 ± 1.5
8118 kPa	1347.7 ± 1.5
8142 kPa	1347.8 ± 1.5
8162 kPa	1348.1 ± 1.5
8181 kPa	1348.2 ± 1.5
8197 kPa	1348.3 ± 1.5
8219 kPa	1348.6 ± 1.5
8234 kPa	1348.6 ± 1.5
8250 kPa	1348.9 ± 1.5
8266 kPa	1348.7 ± 1.5
8284 kPa	1349 ± 1.5
8300 kPa	1349.3 ± 1.5
8316 kPa	1349.2 ± 1.5
8385 kPa	1349.8 ± 1.5
8410 kPa	1350.2 ± 1.5
8432 kPa	1350.1 ± 1.5
8450 kPa	1350.4 ± 1.5
8914 kPa	1353.9 ± 1.5
8936 kPa	1354.2 ± 1.5
8952 kPa	1354.1 ± 1.5
8977 kPa	1354.5 ± 1.5
8991 kPa	1354.6 ± 1.5
9010 kPa	1354.7 ± 1.5
9030 kPa	1354.9 ± 1.5
9051 kPa	1354.9 ± 1.5
9072 kPa	1355.2 ± 1.5
9092 kPa	1355.3 ± 1.5
9115 kPa	1355.4 ± 1.5
9133 kPa	1355.7 ± 1.5
9154 kPa	1355.8 ± 1.5
9171 kPa	1355.9 ± 1.5
9191 kPa	1356.1 ± 1.5
9214 kPa	1356.3 ± 1.5
9238 kPa	1356.3 ± 1.5
9264 kPa	1356.7 ± 1.5
9290 kPa	1356.9 ± 1.5
9305 kPa	1357 ± 1.5
9326 kPa	1357.1 ± 1.5
9347 kPa	1357.2 ± 1.5
9371 kPa	1357.4 ± 1.5
9389 kPa	1357.5 ± 1.5
9411 kPa	1357.8 ± 1.5
9432 kPa	1357.9 ± 1.5
9459 kPa	1358.1 ± 1.5
9483 kPa	1358.2 ± 1.5
9503 kPa	1358.4 ± 1.5
9521 kPa	1358.4 ± 1.5
9543 kPa	1358.6 ± 1.5
9559 kPa	1358.9 ± 1.5
9574 kPa	1358.9 ± 1.5
9596 kPa	1359 ± 1.5
9618 kPa	1359.2 ± 1.5
9639 kPa	1359.5 ± 1.5
9657 kPa	1359.5 ± 1.5
9681 kPa	1359.8 ± 1.5
9700 kPa	1359.9 ± 1.5
9913 kPa	1361.5 ± 1.5
9929 kPa	1361.6 ± 1.5
9948 kPa	1361.8 ± 1.5
9976 kPa	1361.9 ± 1.5
9997 kPa	1362.1 ± 1.5
10019 kPa	1362.3 ± 1.5
10043 kPa	1362.2 ± 1.5
10066 kPa	1362.5 ± 1.5
10083 kPa	1362.6 ± 1.5
10105 kPa	1362.8 ± 1.5
10130 kPa	1363 ± 1.5
10153 kPa	1363.3 ± 1.5
10170 kPa	1363.3 ± 1.5
